Converted amounts (≈) assume the structure as drawn. Like-named read-outs stand apart in the source and are kept apart here.
Experiments:
[1] = system: M. tuberculosis H37Rv; format: in vivo, BALB/c mice; details: for effect of addition to BPaL on bactericidal activity: experiment 5; for additional reduction of lung CFU counts on addition to RZ: vs RZ; for reduction of lung CFU counts: monotherapy 300 mg/kg
[2] = Sparse plasma sampling in infected mice of the combination study (experiment 2); format: in vivo, mouse; details: for Plasma AUC0–24 h: monocompartmental model, combination study; for Blood AUC0–24 h: plasma value transformed with blood/plasma ratio 1.79
Source text: (§1) The calculated exposures at EDmax for GSK138 and GSK693 were obtained using the intravenous mouse PK profiles fitting to a bicompartmental model to obtain those parameters to simulate the oral whole blood exposures at EDmax. Additionally, a monocompartmental model was used to fit the experimental oral pharmacokinetic studies in non-infected mouse together with measured plasma concentrations obtained from the sparse sampling in the experiment 2 in infected mice. Parameters obtained from this fitting were used to simulate the profile after GSK693 administration at 100, 200, and 300 mg/kg in the combination study and to calculate the associated exposures (see Table 2).
Tail vein blood was collected at the indicated time points. Briefly, an incision was made in the lateral tail vein. Blood (20–50 µL) was collected in BD Microtainer PST lithium heparin tubes from each mouse. The tubes were kept on ice before being centrifuged at 8,000 rpm for 5 min. The supernatant plasma (15–30 µL) was transferred to labeled microcentrifuge tubes, frozen, and stored at −80°C and then shipped on dry ice to GSK for further analysis.
Ten microliters of plasma or blood samples thawed at ambient temperature was mixed with 200 µL of acetonitrile (ACN):MeOH (80:20). After this protein precipitation step, samples were filtered using a 0.45-µm filter plate [Multiscreen Solvinert 0.45-μm polytetrafluoroethylene (PTFE), Millipore] and then filtered using a 0.2-µm filter [AcroPrep Advance 96 Filter Plate 350 µL, 0.2-µm polytetrafluoroethylene (PTFE)] to ensure sterilization prior to LC-MS analysis.

[3] = mouse, in vivo, 10 mg/kg; cited from earlier work
[4] = system: drug-susceptible, MDR and XDR M.tb clinical isolates; assay: microbe, parasite or virus in culture; format: cell-based, M. tuberculosis; details: drug-susceptible, MDR and XDR clinical isolates
[5] = mouse, in vivo
Source text: as §1

NNC(=O)c1ccncc1 [isoniazid, reference compound]
effect of addition to BPaL on bactericidal activity ([1]; 4 weeks of treatment): significantly increased the bactericidal activity
effect on the activity of the RZ combination ([1]; mouse, in vivo): did not enhance the activity

COc1c(N2C[C@@H]3CCCN[C@@H]3C2)c(F)cc2c(=O)c(C(=O)O)cn(C3CC3)c12 [moxifloxacin, reference compound]
effect of addition to BPaL on bactericidal activity ([1]; 4 weeks of treatment): trend toward enhanced activity

CO[C@H]1/C=C/O[C@@]2(C)Oc3c(C)c(O)c4c(O)c(c(/C=N/N5CCN(C)CC5)c(O)c4c3C2=O)NC(=O)/C(C)=C\C=C\[C@H](C)[C@H](O)[C@@H](C)[C@@H](O)[C@@H](C)[C@H](OC(C)=O)[C@@H]1C [rifampicin, reference compound]
AUC(0-t) ([2]; mouse, plasma, rifampicin co-administered with pyrazinamide, experiment 2, read-out: Plasma AUC0–24 h): 68500 ng·h/mL
AUC0–24 h [3]: 87,200–142,100 ng·h/mL

Cc1csc([C@](C)(O)c2nnc(Nc3ccn(Cc4csc(C)n4)n3)s2)n1 [GSK693]
MIC90 [4]: 1.87 µM (≈ 0.785 µg/mL)
exposure needed to achieve the maximum effect in monotherapy in the acute infection model [5]: 110,200 ng·h/mL
additional reduction of lung CFU counts on addition to RZ ([1]; experiment 1, 300 mg/kg, week 8): 1.44 log
additive effect when combined with sutezolid, linezolid, or pretomanid (lung CFU) ([1]; experiment 1, GSK693 300 mg/kg): No additive effect
reduction of lung CFU counts ([1]; experiment 1, 4 weeks of treatment): 1.34 log10
reduction of lung CFU counts ([1]; experiment 1, 8 weeks of treatment): 2.33 log10
additional reduction of lung CFU counts on addition to RZ ([1]; experiment 2, 100 mg/kg, 8 weeks): 1.17 log
additional reduction of lung CFU counts on addition to RZ ([1]; experiment 2, 200 mg/kg, 8 weeks): 1.28 log
additional reduction of lung CFU counts on addition to RZ ([1]; experiment 2, 300 mg/kg, 8 weeks): 0.76 log
activity of the combination with RZ vs RZ alone or RZ with isoniazid ([1]; mouse, in vivo): significantly more active
effect on the activity of the RZ combination ([1]; mouse, in vivo): significantly enhanced
efficacy in combination with pretomanid and pyrazinamide compared with moxifloxacin ([1]; mouse, in vivo, 300 mg/kg): nor was it as effective as moxifloxacin
Plasma AUC0–24 h ([2]; 100 mg/kg): 12,867 ng·h/mL
Blood AUC0–24 h ([2]; 100 mg/kg): 23,032 ng·h/mL
Plasma AUC0–24 h ([2]; 200 mg/kg): 27,337 ng·h/mL
Blood AUC0–24 h ([2]; 200 mg/kg): 48,933 ng·h/mL
Plasma AUC0–24 h ([2]; 300 mg/kg): 64,866 ng·h/mL
Blood AUC0–24 h ([2]; 300 mg/kg): 116,110 ng·h/mL
